We go through one molecule from US20100113540A1, “Azole and Thiazole Derivatives and Their Use” (ARGENTA DISCOVERY LIMITED, priority 2005, published 2010).

The target in one test is T1, M3 muscarinic receptor (Homo sapiens, UniProt P20309).
T1 construct: purchased
The test can be described thus: Muscarinic receptor radioligand binding assay ([3H]-NMS), M3. The following applies: cell membranes expressing human M3 receptor. How it is done: (§1) The inhibitory effects of compounds of the present invention at the M3 muscarinic receptor and (in the case of Example 77) the β2 adrenergic receptor, were determined by the following binding assays:
Radioligand binding studies utilising [^3H]-N-methyl scopolamine ([^3H]-NMS) and commercially available cell membranes expressing the human muscarinic receptors (M2 and M3) were used to assess the affinity of muscarinic antagonists for M2 and M3 receptors. Membranes in TRIS buffer were incubated in 96-well plates with [^3H]-NMS and M3 antagonist at various concentrations for 3 hours. Membranes and bound radioligand were then harvested by filtration and allowed to dry overnight. Scintillation fluid was then added and the bound radioligand counted using a Can berra Packard Topcount scintillation counter

In test [1] the target is T2, human β2 adrenergic receptor (Homo sapiens, UniProt P07550).
T2 construct: purchased
T2 sequence (P07550 whole entry): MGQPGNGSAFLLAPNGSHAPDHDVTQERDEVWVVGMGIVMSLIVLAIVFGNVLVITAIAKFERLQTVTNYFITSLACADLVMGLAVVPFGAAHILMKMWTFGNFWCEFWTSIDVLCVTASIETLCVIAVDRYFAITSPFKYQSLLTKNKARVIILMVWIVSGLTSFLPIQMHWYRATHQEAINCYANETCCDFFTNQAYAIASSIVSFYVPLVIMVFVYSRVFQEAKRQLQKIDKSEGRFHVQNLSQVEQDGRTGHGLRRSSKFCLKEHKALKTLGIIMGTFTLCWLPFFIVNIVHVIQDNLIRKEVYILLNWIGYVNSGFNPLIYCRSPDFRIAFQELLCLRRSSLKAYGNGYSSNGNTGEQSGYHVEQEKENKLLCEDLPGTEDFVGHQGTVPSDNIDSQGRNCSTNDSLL
Put plainly: β-Adrenergic receptor radioligand binding assay ([125I]-Iodocyanopindolol). The note with it: cell membranes expressing human β2 adrenergic receptor. Here is the method: as §1
Radioligand binding studies utilising [^125I]-Iodocyanopindolol and commercially available cell membranes expressing the human β2 adrenergic receptor were used to assess the affinity of antagonists for β2-adrenergic receptor. Membranes and SPA-beads were incubated with [^125I-Iodocyanopindolol and β2 antagonist at various concentrations for 3 hours at room temperature in TRIS buffer. The assay was performed in 96-well plates which were read using the Wallac Microbeta counter.

T1 sequence (P20309 whole entry): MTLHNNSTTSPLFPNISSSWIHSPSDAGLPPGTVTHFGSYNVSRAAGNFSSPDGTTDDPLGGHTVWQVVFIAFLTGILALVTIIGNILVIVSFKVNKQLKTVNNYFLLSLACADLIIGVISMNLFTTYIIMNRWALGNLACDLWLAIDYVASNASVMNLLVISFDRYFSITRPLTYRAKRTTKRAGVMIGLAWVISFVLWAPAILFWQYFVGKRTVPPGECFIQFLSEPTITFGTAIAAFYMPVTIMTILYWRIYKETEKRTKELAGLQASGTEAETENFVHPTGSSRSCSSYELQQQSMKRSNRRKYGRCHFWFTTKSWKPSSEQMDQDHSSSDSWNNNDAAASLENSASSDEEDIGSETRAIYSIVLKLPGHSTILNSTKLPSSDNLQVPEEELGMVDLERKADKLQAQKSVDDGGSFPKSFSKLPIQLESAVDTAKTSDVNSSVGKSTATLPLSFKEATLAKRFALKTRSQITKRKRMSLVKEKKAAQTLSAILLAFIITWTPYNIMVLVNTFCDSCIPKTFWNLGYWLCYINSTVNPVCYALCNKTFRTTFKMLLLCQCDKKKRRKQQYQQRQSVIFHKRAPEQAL

As to `CN(CCCCCCCCCNC[C@H](O)c1ccc(O)c2[nH]c(=O)ccc12)Cc1cnc(C(O)(c2ccccc2)C2CCCCC2)o1` (stereo partly drawn) [Example 77, 5-[(R)-2-(9-{[2-(Cyclohexyl-hydroxy-phenyl-methyl)-oxazol-5-ylmethyl]-methyl-amino}-nonylamino)-1-hydroxy-ethyl]-8-hydroxy-1H-quinolin-2-one], the inhibitory constant (Ki) – broadly, a dissociation constant, usually derived from enzyme kinetics or from competition with a known ligand – is above 10 nM on M3 muscarinic receptor and below 100 nM in test [1].
